Measured values: patent US20220167615A1, “FUNGICIDAL COMPOSITIONS” (SYNGENTA CROP PROTECTION AG, priority 2019, published 2022)
Like-named read-outs stand apart in the source and are kept apart here.

Assays:
[1] = tested on: Glomerella lagenarium (Colletotrichum lagenarium); test: Glomerella lagenarium (Colletotrichum lagenarium) / liquid culture (Anthracnose); assay type: cell-based; conditions: Colletotrichum orbiculare, read-out: disease control (inhibition of growth, photometric)
[2] = tested on: Mycosphaerella arachidis (Cercospora arachidicola); test: Mycosphaerella arachidis (Cercospora arachidicola) / liquid culture (early leaf spot); assay type: cell-based; conditions: read-out: disease control (inhibition of growth, photometric)
[3] = tested on: Mycosphaerella graminicola (Septoria tritici); test: Mycosphaerella graminicola (Septoria tritici) / liquid culture (Septoria blotch); assay type: cell-based; conditions: Zymoseptoria tritici, read-out: disease control (inhibition of growth, photometric)
[4] = tested on: Monographella nivalis (Microdochium nivale); test: Monographella nivalis (Microdochium nivale) / liquid culture (foot rot cereals); assay type: cell-based; conditions: read-out: disease control (inhibition of growth, photometric)
[5] = tested on: Botryotinia fuckeliana (Botrytis cinerea); test: Botryotinia fuckeliana (Botrytis cinerea) / liquid culture (Gray mould); assay type: cell-based; conditions: read-out: disease control (inhibition of growth, photometric)
[6] = tested on: Puccinia recondita f. sp. tritici; test: Puccinia recondita f. sp. tritici / wheat / leaf disc preventative (Brown rust); assay type: in vivo; conditions: foliar, read-out: percent disease control compared to untreated
[7] = tested on: Phakopsora pachyrhizi; test: Phakopsora pachyrhizi / soybean / leaf disc preventative (Asian soybean rust); assay type: in vivo; conditions: foliar, read-out: percent disease control compared to untreated
[8] = tested on: Phaeosphaeria nodorum (Septoria nodorum); test: Phaeosphaeria nodorum (Septoria nodorum) / wheat / leaf disc preventative (Glume blotch); assay type: in vivo; conditions: Parastagonospora nodorum, foliar, read-out: percent disease control compared to untreated
[9] = tested on: Magnaporthe grisea (Pyricularia oryzae); test: whole plant or invertebrate; assay type: in vivo; conditions: foliar, read-out: percent disease control compared to untreated
[10] = 20 ppm in the applied formulation, PDB, 24° C., 3 to 4 days after application, vs untreated control
[11] = 20 ppm in the applied formulation, PDB, 24° C., 4-5 days after application, vs untreated control
[12] = 20 ppm in the applied formulation, PDB, 24° C., 4 to 5 days after application, vs untreated control
[13] = 20 ppm in the applied formulation, Vogels broth, 24° C., 3-4 days after application, vs untreated control
[14] = 200 ppm in the applied formulation, wheat leaf segments cv. Kanzler, inoculated 1 day after application, assessed 7-9 days after application
[15] = 200 ppm in the applied formulation, soybean leaf disks, inoculated one day after application, assessed 12 to 14 days after application
[16] = 200 ppm in the applied formulation, wheat leaf segments cv. Kanzler, inoculated 2 days after application, assessed 5-7 days after application

COc1ccnc(C(=O)N[C@@H](C)C(=O)OC(C)C2(c3ccc(Cl)cc3)CCC2)c1O (stereo partly drawn) [X.01, 1-[1-(4-chlorophenyl)cyclobutyl]ethyl(2S)-2-[(3-hydroxy-4-methoxy-pyridine-2-carbonyl)amino]propanoate]
≥ 80%: inhibition at 20 ppm [1, 10] | inhibition at 20 ppm [2, 11] | inhibition at 20 ppm [3, 12] | inhibition at 20 ppm [4, 11] | inhibition at 20 ppm [5, 13] | pest or weed control at 200 ppm [6, 14]

COc1ccnc(C(=O)N[C@@H](C)C(=O)OC(C)C(C)n2ccc3c(Br)ccc(F)c32)c1O (stereo partly drawn) [X.02, [2-(4-bromo-7-fluoro-indol-1-yl)-1-methyl-propyl] (2S)-2-[(3-hydroxy-4-methoxy-pyridine-2-carbonyl)amino]propanoate]
≥ 80%: pest or weed control at 200 ppm [7, 15] | inhibition at 20 ppm [1, 10] | inhibition at 20 ppm [2, 11] | inhibition at 20 ppm [3, 12] | inhibition at 20 ppm [4, 11] | inhibition at 20 ppm [5, 13] | pest or weed control at 200 ppm [6, 14]

COc1ccnc(C(=O)N[C@@H](C)C(=O)OC(C)C(C)c2ncc(Cl)cc2Cl)c1O (stereo partly drawn) [X.03, [2-(3,5-dichloro-2-pyridyl)-1-methyl-propyl] (2S)-2-[(3-hydroxy-4-methoxy-pyridine-2-carbonyl)amino]propanoate]
≥ 80%: pest or weed control at 200 ppm [7] | inhibition at 20 ppm [1] | inhibition at 20 ppm [2] | inhibition at 20 ppm [3] | inhibition at 20 ppm [4] | inhibition at 20 ppm [5] | pest or weed control at 200 ppm [8] | pest or weed control at 200 ppm [6]

COc1ccnc(C(=O)N[C@@H](C)C(=O)O[C@@H](C)C2(c3cccc4ccccc34)CC2)c1OCOC(C)=O [X.04, [(1S)-1-[1-(1-naphthyl)cyclopropyl]ethyl] (2S)-2-[[3-(acetoxymethoxy)-4-methoxy-pyridine-2-carbonyl]amino]propanoate]
≥ 80%: pest or weed control at 200 ppm [7, 15] | pest or weed control at 200 ppm [9] | inhibition at 20 ppm [1, 10] | inhibition at 20 ppm [2, 11] | inhibition at 20 ppm [3, 12] | inhibition at 20 ppm [4, 11] | pest or weed control at 200 ppm [8, 16] | pest or weed control at 200 ppm [6, 14]

COc1ccnc(C(=O)N[C@@H](C)C(=O)O[C@@H](C)C2(c3cccc4ccccc34)CC2)c1O [X.05, [(1S)-1-[1-(1-naphthyl)cyclopropyl]ethyl] (2S)-2-[(3-hydroxy-4-methoxy-pyridine-2-carbonyl)amino]propanoate]
≥ 80%: pest or weed control at 200 ppm [7, 15] | pest or weed control at 200 ppm [9] | inhibition at 20 ppm [1, 10] | inhibition at 20 ppm [2, 11] | inhibition at 20 ppm [3, 12] | inhibition at 20 ppm [4, 11] | inhibition at 20 ppm [5, 13] | pest or weed control at 200 ppm [8, 16] | pest or weed control at 200 ppm [6, 14]

COc1ccnc(C(=O)N[C@@H](C)C(=O)OC(C)C(C)c2ncc(Cl)cc2Cl)c1OCOC(=O)C(C)C (stereo partly drawn) [X.06, [2-[[(1S)-2-[2-(3,5-dichloro-2-pyridyl)-1-methyl-propoxy]-1-methyl-2-oxo-ethyl]carbamoyl]-4-methoxy-3-pyridyl]oxymethyl 2-methylpropanoate]
≥ 80%: pest or weed control at 200 ppm [7, 15] | inhibition at 20 ppm [2, 11] | inhibition at 20 ppm [3, 12] | inhibition at 20 ppm [4, 11] | pest or weed control at 200 ppm [6, 14]

COc1ccnc(C(=O)N[C@@H](C)C(=O)O[C@@H](C)C2(c3cccc4ccccc34)CC2)c1OCOC(=O)C(C)C [X.07, [4-methoxy-2-[[(1S)-1-methyl-2-[(1S)-1-[1-(1-naphthyl)cyclopropyl]ethoxy]-2-oxo-ethyl]carbamoyl]-3-pyridyl]oxymethyl 2-methylpropanoate]
≥ 80%: pest or weed control at 200 ppm [9] | inhibition at 20 ppm [1, 10] | inhibition at 20 ppm [2, 11] | inhibition at 20 ppm [3, 12] | pest or weed control at 200 ppm [8, 16] | pest or weed control at 200 ppm [6, 14]

COc1ccnc(C(=O)N[C@@H](C)C(=O)OC(C)C(C)(C)c2ccc(Br)cc2)c1O (stereo partly drawn) [X.08, [2-(4-bromophenyl)-1,2-dimethyl-propyl] (2S)-2-[(3-hydroxy-4-methoxy-pyridine-2-carbonyl)amino]propanoate]
≥ 80%: pest or weed control at 200 ppm [9] | inhibition at 20 ppm [1, 10] | inhibition at 20 ppm [2, 11] | inhibition at 20 ppm [3, 12] | inhibition at 20 ppm [4, 11] | inhibition at 20 ppm [5, 13] | pest or weed control at 200 ppm [6, 14]

COc1ccnc(C(=O)N[C@@H](C)C(=O)OC(C)C2(c3ccccc3)CCCCC2)c1O (stereo partly drawn) [X.09, 1-(1-phenylcyclohexyl)ethyl (2S)-2-[(3-hydroxy-4-methoxy-pyridine-2-carbonyl)amino]propanoate]
≥ 80%: pest or weed control at 200 ppm [9] | inhibition at 20 ppm [1, 10] | inhibition at 20 ppm [2, 11] | inhibition at 20 ppm [3, 12] | inhibition at 20 ppm [4, 11] | inhibition at 20 ppm [5, 13] | pest or weed control at 200 ppm [6, 14]

COc1ccnc(C(=O)N[C@@H](C)C(=O)OC(C)C(C)c2ccc3ccccc3n2)c1O (stereo partly drawn) [X.10, [1-methyl-2-(2-quinolyl)propyl] (2S)-2-[(3-hydroxy-4-methoxy-pyridine-2-carbonyl)amino]propanoate]
≥ 80%: inhibition at 20 ppm [1, 10] | inhibition at 20 ppm [3, 12] | inhibition at 20 ppm [4, 11] | inhibition at 20 ppm [5, 13] | pest or weed control at 200 ppm [6, 14]

COc1ccnc(C(=O)N[C@@H](C)C(=O)OC(C)C(C)n2ccc3cccc(Br)c32)c1O (stereo partly drawn) [X.11, [2-(7-bromoindol-1-yl)-1-methyl-propyl] (2S)-2-[(3-hydroxy-4-methoxy-pyridine-2-carbonyl)amino]propanoate]
≥ 80%: pest or weed control at 200 ppm [7, 15] | inhibition at 20 ppm [1, 10] | inhibition at 20 ppm [2, 11] | inhibition at 20 ppm [3, 12] | inhibition at 20 ppm [4, 11] | pest or weed control at 200 ppm [6, 14]

COc1ccnc(C(=O)N[C@@H](C)C(=O)OC(C)C(C)n2ccc3ccc(C(F)(F)F)cc32)c1O (stereo partly drawn) [X.12, [1-methyl-2-[6-(trifluoromethyl)indol-1-yl]propyl] (2S)-2-[(3-hydroxy-4-methoxy-pyridine-2-carbonyl)amino]propanoate]
≥ 80%: pest or weed control at 200 ppm [9] | inhibition at 20 ppm [1, 10] | inhibition at 20 ppm [2, 11] | inhibition at 20 ppm [3, 12] | inhibition at 20 ppm [4, 11] | inhibition at 20 ppm [5, 13] | pest or weed control at 200 ppm [6, 14]

COc1ccnc(C(=O)N[C@@H](C)C(=O)OC(C)C(C)n2ncc3ccccc32)c1O (stereo partly drawn) [X.13, (2-indazol-1-yl-1-methyl-propyl) (2S)-2-[(3-hydroxy-4-methoxy-pyridine-2-carbonyl)amino]propanoate]
≥ 80%: inhibition at 20 ppm [3, 12]

COc1ccnc(C(=O)N[C@@H](C)C(=O)OC(C)C(C)c2ccc(Cl)s2)c1O (stereo partly drawn) [X.14, [2-(5-chloro-2-thienyl)-1-methyl-propyl] (2S)-2-[(3-hydroxy-4-methoxy-pyridine-2-carbonyl)amino]propanoate]
≥ 80%: inhibition at 20 ppm [1, 10] | inhibition at 20 ppm [2, 11] | inhibition at 20 ppm [3, 12] | inhibition at 20 ppm [4, 11] | inhibition at 20 ppm [5, 13] | pest or weed control at 200 ppm [6, 14]

COc1ccnc(C(=O)N[C@@H](C)C(=O)OC(C)C(C)n2ccc3c(Cl)ccc(Cl)c32)c1OC(C)=O (stereo partly drawn) [X.15, [2-(4,7-dichloroindol-1-yl)-1-methyl-propyl] (2S)-2-[(3-acetoxy-4-methoxy-pyridine-2-carbonyl)amino]propanoate]
≥ 80%: inhibition at 20 ppm [1, 10] | inhibition at 20 ppm [2, 11] | inhibition at 20 ppm [3, 12] | inhibition at 20 ppm [4, 11] | pest or weed control at 200 ppm [6, 14]

COc1ccnc(C(=O)N[C@@H](C)C(=O)OC(C)C(C)n2ccc3c(F)ccc(Br)c32)c1OC(C)=O (stereo partly drawn) [X.16, [2-(7-bromo-4-fluoro-indol-1-yl)-1-methyl-propyl] (2S)-2-[(3-acetoxy-4-methoxy-pyridine-2-carbonyl)amino]propanoate]
≥ 80%: pest or weed control at 200 ppm [7, 15] | inhibition at 20 ppm [1, 10] | inhibition at 20 ppm [2, 11] | inhibition at 20 ppm [3, 12] | inhibition at 20 ppm [4, 11] | pest or weed control at 200 ppm [6, 14]

COc1ccnc(C(=O)N[C@@H](C)C(=O)O[C@@H](C)C2(c3cccc4ccccc34)CC2)c1OC(C)=O [X.17, [(1S)-1-[1-(1-naphthyl)cyclopropyl]ethyl] (2S)-2-[(3-acetoxy-4-methoxy-pyridine-2-carbonyl)amino]propanoate]
≥ 80%: pest or weed control at 200 ppm [7, 15] | pest or weed control at 200 ppm [9] | inhibition at 20 ppm [1, 10] | inhibition at 20 ppm [2, 11] | inhibition at 20 ppm [3, 12] | inhibition at 20 ppm [4, 11] | inhibition at 20 ppm [5, 13] | pest or weed control at 200 ppm [8, 16] | pest or weed control at 200 ppm [6, 14]
